Data from ChEMBL document CHEMBL5653631, “A Potent and Selective ULK1 Inhibitor Suppresses Autophagy and Sensitizes Cancer Cells to Nutrient Stress” (iScience, 2018).

Assays:
[1] = biological target: Glycogen synthase kinase-3 alpha (Homo sapiens) (UniProt P49840); assay: Inhibition of human recombinant GSK3A at 40 nM related to control ULK1
[2] = biological target: Ephrin type-A receptor 4 (Homo sapiens) (UniProt P54764); assay: Inhibition of human recombinant EphA4 at 40 nM in presence of ATP by radiometric assay relative to control
[3] = biological target: Serine/threonine-protein kinase PLK1 (Homo sapiens) (UniProt P53350); assay: Inhibition of human recombinant PLK1 at 15 nM related to control ULK1
Sequence of Serine/threonine-protein kinase PLK1 (Homo sapiens) (P53350 whole entry): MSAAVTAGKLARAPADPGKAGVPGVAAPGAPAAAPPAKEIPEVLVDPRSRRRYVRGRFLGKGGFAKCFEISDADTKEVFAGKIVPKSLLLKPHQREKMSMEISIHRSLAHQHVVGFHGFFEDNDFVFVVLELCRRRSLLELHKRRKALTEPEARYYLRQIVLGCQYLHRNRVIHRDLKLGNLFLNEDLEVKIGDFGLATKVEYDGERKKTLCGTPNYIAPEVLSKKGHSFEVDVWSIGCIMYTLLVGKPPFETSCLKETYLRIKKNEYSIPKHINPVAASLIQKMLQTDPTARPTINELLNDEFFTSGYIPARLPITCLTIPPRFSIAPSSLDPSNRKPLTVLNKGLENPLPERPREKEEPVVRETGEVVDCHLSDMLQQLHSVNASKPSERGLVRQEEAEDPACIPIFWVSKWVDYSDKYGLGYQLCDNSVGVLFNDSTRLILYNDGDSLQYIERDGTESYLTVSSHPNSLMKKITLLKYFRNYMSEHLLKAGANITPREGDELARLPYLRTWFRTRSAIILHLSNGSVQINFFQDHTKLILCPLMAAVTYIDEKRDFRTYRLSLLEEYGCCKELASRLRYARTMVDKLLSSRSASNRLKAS

[4] = biological target: Tyrosine-protein kinase JAK2 (Homo sapiens) (UniProt O60674); assay: Inhibition of human recombinant JAK2 at 15 nM related to control ULK1
Sequence of Tyrosine-protein kinase JAK2 (Homo sapiens) (O60674 whole entry): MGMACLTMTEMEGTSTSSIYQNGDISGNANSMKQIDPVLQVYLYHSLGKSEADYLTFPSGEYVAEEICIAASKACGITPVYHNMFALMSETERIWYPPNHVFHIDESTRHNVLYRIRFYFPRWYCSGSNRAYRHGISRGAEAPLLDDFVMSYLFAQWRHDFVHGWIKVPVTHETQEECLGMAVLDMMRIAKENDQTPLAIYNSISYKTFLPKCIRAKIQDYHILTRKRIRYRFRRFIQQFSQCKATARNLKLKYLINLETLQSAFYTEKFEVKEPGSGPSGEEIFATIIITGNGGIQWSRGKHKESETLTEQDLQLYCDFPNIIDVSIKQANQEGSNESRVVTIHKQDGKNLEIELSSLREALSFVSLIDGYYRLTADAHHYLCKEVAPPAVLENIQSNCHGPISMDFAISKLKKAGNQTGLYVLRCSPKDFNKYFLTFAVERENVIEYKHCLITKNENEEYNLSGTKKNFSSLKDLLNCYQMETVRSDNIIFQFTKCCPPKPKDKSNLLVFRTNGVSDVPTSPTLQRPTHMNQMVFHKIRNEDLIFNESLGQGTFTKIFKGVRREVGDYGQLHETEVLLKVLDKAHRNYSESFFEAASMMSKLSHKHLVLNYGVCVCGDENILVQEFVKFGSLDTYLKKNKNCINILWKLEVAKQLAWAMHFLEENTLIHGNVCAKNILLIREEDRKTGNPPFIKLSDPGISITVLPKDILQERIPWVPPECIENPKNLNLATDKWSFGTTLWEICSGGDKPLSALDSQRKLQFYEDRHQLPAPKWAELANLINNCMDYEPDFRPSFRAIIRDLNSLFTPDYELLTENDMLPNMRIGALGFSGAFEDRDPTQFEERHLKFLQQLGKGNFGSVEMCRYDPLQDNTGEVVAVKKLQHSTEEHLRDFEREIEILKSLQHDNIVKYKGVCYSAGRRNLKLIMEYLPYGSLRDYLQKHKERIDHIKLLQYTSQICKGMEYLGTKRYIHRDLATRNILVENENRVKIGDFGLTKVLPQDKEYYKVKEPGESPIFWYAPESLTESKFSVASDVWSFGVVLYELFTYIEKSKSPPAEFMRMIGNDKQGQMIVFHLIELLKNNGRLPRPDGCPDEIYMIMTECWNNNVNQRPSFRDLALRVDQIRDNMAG

[5] = biological target: T1, Testis-specific serine/threonine-protein kinase 3 (Homo sapiens) (UniProt Q96PN8); assay: Inhibition of human recombinant TSSK3 at 15 nM related to control ULK1
T1 sequence (whole entry): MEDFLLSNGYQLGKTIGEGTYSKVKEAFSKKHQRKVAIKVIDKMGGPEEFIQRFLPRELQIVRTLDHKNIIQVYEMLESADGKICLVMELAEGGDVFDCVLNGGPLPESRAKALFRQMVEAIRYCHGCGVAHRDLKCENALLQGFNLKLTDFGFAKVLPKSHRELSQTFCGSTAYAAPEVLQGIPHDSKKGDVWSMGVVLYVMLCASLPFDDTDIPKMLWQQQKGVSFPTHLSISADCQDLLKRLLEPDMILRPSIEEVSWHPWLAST

[6] = biological target: Transient receptor potential cation channel subfamily M member 7 (Homo sapiens) (UniProt Q96QT4); assay: Inhibition of human recombinant ChaK1 at 500 nM in presence of ATP by radiometric assay relative to control
Sequence of Transient receptor potential cation channel subfamily M member 7 (Homo sapiens) (Q96QT4 whole entry): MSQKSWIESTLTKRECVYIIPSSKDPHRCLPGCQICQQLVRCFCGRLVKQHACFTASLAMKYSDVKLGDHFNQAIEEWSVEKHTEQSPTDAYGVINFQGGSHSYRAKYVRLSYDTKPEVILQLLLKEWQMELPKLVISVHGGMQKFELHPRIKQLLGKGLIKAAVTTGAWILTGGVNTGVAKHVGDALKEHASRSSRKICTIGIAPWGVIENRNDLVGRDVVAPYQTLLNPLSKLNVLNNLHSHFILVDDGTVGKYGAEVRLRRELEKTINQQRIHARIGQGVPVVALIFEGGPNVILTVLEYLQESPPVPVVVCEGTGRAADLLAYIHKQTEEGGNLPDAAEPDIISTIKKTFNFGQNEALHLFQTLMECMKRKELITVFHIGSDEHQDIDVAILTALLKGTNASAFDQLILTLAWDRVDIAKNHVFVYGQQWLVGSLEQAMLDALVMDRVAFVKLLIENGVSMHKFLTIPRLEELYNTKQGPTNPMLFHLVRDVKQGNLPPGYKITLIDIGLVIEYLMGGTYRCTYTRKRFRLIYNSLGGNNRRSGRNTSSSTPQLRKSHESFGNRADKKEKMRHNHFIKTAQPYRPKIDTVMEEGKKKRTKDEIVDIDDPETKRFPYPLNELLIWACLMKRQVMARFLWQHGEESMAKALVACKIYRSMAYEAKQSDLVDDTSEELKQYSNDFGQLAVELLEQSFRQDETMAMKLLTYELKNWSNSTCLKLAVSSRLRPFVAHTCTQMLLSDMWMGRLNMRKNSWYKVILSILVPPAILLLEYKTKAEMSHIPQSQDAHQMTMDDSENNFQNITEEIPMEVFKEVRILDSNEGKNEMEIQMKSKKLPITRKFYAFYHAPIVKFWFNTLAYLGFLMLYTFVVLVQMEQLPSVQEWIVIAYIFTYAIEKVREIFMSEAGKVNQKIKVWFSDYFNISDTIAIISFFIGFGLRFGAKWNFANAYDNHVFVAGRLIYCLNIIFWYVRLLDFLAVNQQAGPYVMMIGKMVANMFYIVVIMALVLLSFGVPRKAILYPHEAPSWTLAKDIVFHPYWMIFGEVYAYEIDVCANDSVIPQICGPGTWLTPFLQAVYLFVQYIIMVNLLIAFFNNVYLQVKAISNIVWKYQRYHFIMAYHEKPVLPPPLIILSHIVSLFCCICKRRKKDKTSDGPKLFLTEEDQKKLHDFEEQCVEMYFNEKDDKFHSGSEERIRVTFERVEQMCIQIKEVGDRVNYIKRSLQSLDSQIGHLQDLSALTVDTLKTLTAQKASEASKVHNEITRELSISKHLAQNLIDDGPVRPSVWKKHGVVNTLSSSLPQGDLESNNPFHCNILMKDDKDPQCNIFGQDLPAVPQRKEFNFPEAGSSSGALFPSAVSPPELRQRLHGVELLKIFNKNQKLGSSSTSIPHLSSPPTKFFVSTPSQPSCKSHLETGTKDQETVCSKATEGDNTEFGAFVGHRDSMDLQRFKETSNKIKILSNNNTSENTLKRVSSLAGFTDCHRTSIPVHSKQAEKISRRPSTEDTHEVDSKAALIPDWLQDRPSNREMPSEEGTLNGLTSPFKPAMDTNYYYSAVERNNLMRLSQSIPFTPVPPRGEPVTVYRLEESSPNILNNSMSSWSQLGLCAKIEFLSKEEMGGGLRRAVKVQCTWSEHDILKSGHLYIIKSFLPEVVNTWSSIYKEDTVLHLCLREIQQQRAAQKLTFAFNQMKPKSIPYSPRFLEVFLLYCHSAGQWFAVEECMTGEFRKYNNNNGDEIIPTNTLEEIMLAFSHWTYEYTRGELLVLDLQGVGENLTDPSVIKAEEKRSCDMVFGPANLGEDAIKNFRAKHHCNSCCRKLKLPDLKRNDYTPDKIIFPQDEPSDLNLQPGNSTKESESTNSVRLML

[7] = biological target: Tyrosine-protein kinase Lyn (Homo sapiens) (UniProt P07948); assay: Inhibition of human recombinant LYN at 500 nM in presence of ATP by radiometric assay relative to control
Sequence of Tyrosine-protein kinase Lyn (Homo sapiens) (P07948 2-512 limits assumed): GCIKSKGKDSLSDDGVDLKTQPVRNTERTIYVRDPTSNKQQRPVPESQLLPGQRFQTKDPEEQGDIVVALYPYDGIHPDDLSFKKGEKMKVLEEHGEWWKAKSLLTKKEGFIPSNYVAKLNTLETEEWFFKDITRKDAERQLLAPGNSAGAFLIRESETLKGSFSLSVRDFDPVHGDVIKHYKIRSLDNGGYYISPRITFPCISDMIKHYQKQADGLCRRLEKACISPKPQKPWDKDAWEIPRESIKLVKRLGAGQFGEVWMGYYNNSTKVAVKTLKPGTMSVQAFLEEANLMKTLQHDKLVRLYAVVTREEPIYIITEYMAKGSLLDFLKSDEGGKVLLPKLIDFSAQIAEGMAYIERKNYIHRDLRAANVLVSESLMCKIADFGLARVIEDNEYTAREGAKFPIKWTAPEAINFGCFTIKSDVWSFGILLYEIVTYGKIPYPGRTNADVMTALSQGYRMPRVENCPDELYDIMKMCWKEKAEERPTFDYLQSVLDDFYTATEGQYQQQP

[8] = biological target: LIM domain kinase 1 (Homo sapiens) (UniProt P53667); assay: Inhibition of human recombinant LIMK1 at 500 nM related to control ULK1
[9] = biological target: Casein kinase I isoform gamma-2 (Homo sapiens) (UniProt P78368); assay: Inhibition of human recombinant CK1g2 at 500 nM in presence of ATP by radiometric assay relative to control
Sequence of Casein kinase I isoform gamma-2 (Homo sapiens) (P78368 whole entry, looked up, canonical isoform): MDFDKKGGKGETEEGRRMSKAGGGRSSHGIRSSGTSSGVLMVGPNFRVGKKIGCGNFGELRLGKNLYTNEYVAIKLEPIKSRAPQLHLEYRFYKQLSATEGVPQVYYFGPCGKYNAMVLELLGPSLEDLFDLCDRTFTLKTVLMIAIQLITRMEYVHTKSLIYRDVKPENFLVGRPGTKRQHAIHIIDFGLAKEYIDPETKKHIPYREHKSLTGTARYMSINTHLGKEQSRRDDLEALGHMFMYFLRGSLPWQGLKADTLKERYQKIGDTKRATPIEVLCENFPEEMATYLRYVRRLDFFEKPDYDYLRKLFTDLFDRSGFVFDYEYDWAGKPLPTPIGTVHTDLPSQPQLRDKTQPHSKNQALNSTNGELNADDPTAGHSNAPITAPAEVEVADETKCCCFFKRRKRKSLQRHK

[10] = biological target: T2, Serine/threonine-protein kinase ULK1 (Homo sapiens) (UniProt O75385); assay: Inhibition of human recombinant ULK1 at 500 nM in presence of ATP by radiometric assay relative to control
T2 sequence (whole entry): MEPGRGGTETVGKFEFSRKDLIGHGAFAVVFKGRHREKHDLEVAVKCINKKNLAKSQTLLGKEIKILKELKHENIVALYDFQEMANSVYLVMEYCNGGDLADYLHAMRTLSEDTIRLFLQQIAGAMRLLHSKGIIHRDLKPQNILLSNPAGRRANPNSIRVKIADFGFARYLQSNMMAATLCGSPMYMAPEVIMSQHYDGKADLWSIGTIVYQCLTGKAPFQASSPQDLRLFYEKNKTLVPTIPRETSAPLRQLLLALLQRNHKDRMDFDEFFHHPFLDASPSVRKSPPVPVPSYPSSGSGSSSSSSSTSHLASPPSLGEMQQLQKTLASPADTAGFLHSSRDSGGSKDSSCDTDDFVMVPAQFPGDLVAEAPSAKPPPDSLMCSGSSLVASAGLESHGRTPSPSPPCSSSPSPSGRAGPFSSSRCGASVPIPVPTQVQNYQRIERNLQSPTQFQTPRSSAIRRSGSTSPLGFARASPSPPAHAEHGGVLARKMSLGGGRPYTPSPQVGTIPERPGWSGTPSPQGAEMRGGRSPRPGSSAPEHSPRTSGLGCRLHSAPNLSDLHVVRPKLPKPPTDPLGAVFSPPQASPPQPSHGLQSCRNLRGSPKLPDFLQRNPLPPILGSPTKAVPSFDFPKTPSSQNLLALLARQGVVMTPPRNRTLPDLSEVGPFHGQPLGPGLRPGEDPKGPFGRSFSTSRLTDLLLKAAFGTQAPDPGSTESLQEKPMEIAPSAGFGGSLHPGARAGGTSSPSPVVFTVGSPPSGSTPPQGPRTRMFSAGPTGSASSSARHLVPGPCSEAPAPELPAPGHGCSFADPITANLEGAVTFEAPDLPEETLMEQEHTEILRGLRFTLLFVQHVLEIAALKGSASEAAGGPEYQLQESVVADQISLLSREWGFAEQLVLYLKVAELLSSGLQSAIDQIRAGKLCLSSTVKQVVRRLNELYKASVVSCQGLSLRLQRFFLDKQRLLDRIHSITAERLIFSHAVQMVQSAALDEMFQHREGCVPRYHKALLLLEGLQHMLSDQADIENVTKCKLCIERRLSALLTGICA

[11] = biological target: T3, Serine/threonine-protein kinase Nek3 (Homo sapiens) (UniProt P51956); assay: Inhibition of human recombinant NEK3 at 500 nM in presence of ATP by radiometric assay relative to control
T3 sequence (whole entry): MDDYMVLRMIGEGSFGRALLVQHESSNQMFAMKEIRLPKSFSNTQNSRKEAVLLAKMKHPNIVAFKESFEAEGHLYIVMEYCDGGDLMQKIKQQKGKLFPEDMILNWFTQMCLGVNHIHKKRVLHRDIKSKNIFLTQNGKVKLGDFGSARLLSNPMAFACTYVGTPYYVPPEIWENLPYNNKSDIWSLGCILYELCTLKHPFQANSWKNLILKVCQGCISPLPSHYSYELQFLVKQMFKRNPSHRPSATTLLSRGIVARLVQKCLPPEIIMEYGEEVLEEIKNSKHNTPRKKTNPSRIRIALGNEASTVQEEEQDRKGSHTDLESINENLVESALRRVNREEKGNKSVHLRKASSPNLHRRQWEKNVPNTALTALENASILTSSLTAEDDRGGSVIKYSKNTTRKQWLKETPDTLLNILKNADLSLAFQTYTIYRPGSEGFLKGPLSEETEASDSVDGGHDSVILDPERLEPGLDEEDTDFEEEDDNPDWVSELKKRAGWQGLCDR

[12] = biological target: Leucine-rich repeat serine/threonine-protein kinase 2 (Homo sapiens) (UniProt Q5S007); assay: Inhibition of human recombinant LRRK2 at 500 nM in presence of ATP by radiometric assay relative to control

Sequence of Glycogen synthase kinase-3 alpha (Homo sapiens) (P49840 2-483 limits assumed): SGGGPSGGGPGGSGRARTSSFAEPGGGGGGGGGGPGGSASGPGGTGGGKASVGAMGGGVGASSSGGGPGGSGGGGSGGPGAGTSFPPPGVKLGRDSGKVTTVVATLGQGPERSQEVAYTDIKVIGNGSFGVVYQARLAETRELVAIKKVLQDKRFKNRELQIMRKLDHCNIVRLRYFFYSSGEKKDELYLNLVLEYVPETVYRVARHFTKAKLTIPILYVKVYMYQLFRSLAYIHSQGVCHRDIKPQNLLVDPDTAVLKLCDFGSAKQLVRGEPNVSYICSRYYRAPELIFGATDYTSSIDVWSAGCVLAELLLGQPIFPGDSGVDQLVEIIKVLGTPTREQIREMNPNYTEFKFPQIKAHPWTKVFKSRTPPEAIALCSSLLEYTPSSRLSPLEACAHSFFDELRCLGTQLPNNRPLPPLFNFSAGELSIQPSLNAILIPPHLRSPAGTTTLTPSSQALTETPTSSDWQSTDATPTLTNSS

O=C(N[C@@H](C1CC1)C(F)(F)F)c1cc(-c2cnn3cc(-c4ccc(F)cc4)cnc23)cs1
fold change (FC) [1]: 0
inhibition [2]: 0%

CC(C)[C@H](NC(=O)c1cc(-c2cnn3cc(-c4ccc(OCCN5CCCCC5)cc4)cnc23)cs1)C(F)(F)F
fold change (FC) [3]: 0.01
fold change (FC) [4]: 0.07
fold change (FC) [5]: 0.16

CNC(=O)c1ccccc1Oc1nc(Nc2cc(OC)c(OC)c(OC)c2)ncc1Br
inhibition [6]: 0%
inhibition [7]: 30%
fold change (FC) [8]: 0.03
inhibition [9]: 0%
inhibition [10]: 74%
inhibition [11]: 7%
inhibition [12]: 35%
